Legend:
Assay type in all cases: functional, cell-based
PC-3 = assay: Antiproliferative activity against human PC-3 cells assessed as cell growth inhibition by SRB assay
DU-145 = assay: Antiproliferative activity against human […] cells assessed as cell growth inhibition by SRB assay
HeLa = assay: Anti-proliferative activity against human HeLa cells assessed as cell growth inhibition incubated for 72 hrs by CCK-8 assay
HCC1954 = assay: Anti-proliferative activity against human HCC1954 cells assessed as cell growth inhibition incubated for 72 hrs by CCK-8 assay; details: HCC1954, 72 h
SK-OV-3 = assay: Anti-proliferative activity against human SK-OV-3 cells assessed as cell growth inhibition incubated for 72 hrs by CCK-8 assay; details: SK-OV-3, 72 h

| Compound | IC50 (PC-3) | IC50 (DU-145) | IC50 (HeLa) | IC50 (HCC1954) | IC50 (SK-OV-3) |
| --- | --- | --- | --- | --- | --- |
| C[C@]1([N+](=O)[O-])C(=O)c2cc(F)ccc2O[C@@H]1CC(=O)NC12CC3CC(CC(C3)C1)C2 | 1540 nM | 1650 nM |  |  |  |
| COc1ccc(-c2oc3cc(O)cc(O)c3c(=O)c2OCc2cn([C@@H]3O[C@H](COC(C)=O)[C@@H](OC(C)=O)[C@H](OC(C)=O)[C@H]3OC(C)=O)nn2)cc1O |  |  |  | 43.4 µM | 30.6 µM |

Second part, the compound after the results:

| IC50 (PC-3) | IC50 (DU-145) | IC50 (HeLa) | IC50 (HCC1954) | IC50 (SK-OV-3) | Compound |
| --- | --- | --- | --- | --- | --- |
| 940 nM | 1210 nM |  |  |  | CC1([N+](=O)[O-])C(=O)c2cc(F)ccc2OC1CC(=O)NC12CC3CC(CC(C3)C1)C2 (racemic) |
| 820 nM | 640 nM |  |  |  | C[C@@]1([N+](=O)[O-])C(=O)c2cc(F)ccc2O[C@H]1CC(=O)NC12CC3CC(CC(C3)C1)C2 |
|  |  | 14.7 µM |  |  | COc1ccc(-c2cc(=O)c3c(C)cc(OCc4cn([C@@H]5O[C@H](COC(C)=O)[C@@H](O[C@H]6O[C@H](COC(C)=O)[C@@H](OC(C)=O)[C@H](OC(C)=O)[C@H]6OC(C)=O)[C@H](OC(C)=O)[C@H]5OC(C)=O)nn4)cc3o2)cc1 |

— ChEMBL document CHEMBL5346866, “What about the progress in the synthesis of flavonoid from 2020?” (Eur J Med Chem, 2022)
